The text below walks through data of patent US20130040882A1, “USE OF FIBROBLAST GROWTH FACTOR FRAGMENTS” (NOVARTIS AG, priority 2003, published 2013).

Entries after “also recorded” stand apart in the source; their conditions may differ.

One assay has as its system uterine gene expression. Description: Gene expression profiling (HGU133A) in the uterus of ovariectomized monkeys treated with estradiol, tamoxifen or raloxifene. It counts as in vivo, cynomolgus monkeys (Macaca fascicularis).
The test system of assay [1] is luteinising hormone and follicle-stimulating hormone genes in the pituitary gland. Description: Gene expression (HGU133A) in the pituitary gland of ovariectomized monkeys treated with estradiol, tamoxifen or raloxifene. It counts as in vivo, cynomolgus monkeys (Macaca fascicularis). To be noted: OVX monkeys. The procedure:
Female sexually mature cynomolgus monkeys (Macaca fascicularis obtained from R. C. Hartelust B V, Tilburg, the Netherlands) approximately 48 months old were subjected to surgery (ovarectomy [OVX] or sham) 10 weeks prior to treatment and were treated for parasitic arthropods and helminthes, subjected to a tuberculin testing, and acclimated to the treatment facility for at least 14 days before beginning treatment.
Surgical Procedures. The ovariectomized cynomolgus monkey (Macaca fascicularis), which has been validated as a useful model predictive of outcomes in human clinical trials of estrogen and SERMs (Cline J M et al., Toxicol Pathol. 29:84-90 (2001)), was used as a model of estrogen deficiency. Animals were ovariectomized approximately 10 weeks before the first day of treatment. The ovaries were removed following anesthesia with a combined intramuscular injection of xylazine (Rompun®: 0.4 mL/animal, Bayer Pharma Division Sante Animale, Puteaux, France) and ketamine hydrochloride (Imalgéne®: 0.6 mL/kg, Mérial, Lyon, France). Sham-operated animals were subjected to the same surgical procedure, except for the removal of ovaries.
Ovariectomized and sham-operated animals were divided into groups of 4 and treated as outlined below.
Gene expression was determined in the pituitary and uterus at the end of drug therapy. Tissues to be analyzed (pituitary glands and uterus) were excised, snap frozen in liquid nitrogen, and stored at −80° C. until RNA extraction was performed.
Total RNA was obtained by acid guanidinium isothiocyanate-phenol-chloroform extraction (Trizol; Invitrogen Life Technologies, San Diego, Calif., USA) and purified on an affinity resin column (RNeasy; Qiagen, Hilden, Germany) according to manufacturer instructions. […] Lockhart D J, Dong H, Byrne M C, et al. Nat. Biotechnol. 1996; 14:1675-1680.
Previous studies have proven the validity of cross-species DNA chip analysis (Hacia J G et al. Nat Genet. 18:155-158 (1998)), therefore, the human gene expression probe arrays HGU133A (Affymetrix, Santa Clara, Calif., USA) containing 22,283 probe sets interrogating primarily annotated human genes were used. One GeneChip was used per tissue, per animal. The resulting image files (.dat files) were processed using the Microarray Analysis Suite 5 (MAS5) software (Affymetrix, Inc.). Tab-delimited files were obtained containing data regarding signal intensity (Signal) and categorical expression level measurement (Absolute Call).

Assay [2] concerns gene expression in organs. As to the kind of experiment: Blind monkey trial of three peptides: gene expression profiling of organs on Affymetrix U95 chips. It counts as in vivo, cynomolgus monkeys. To be noted: 100 μg/animal/day sc, two weeks.
The mark [3] stands for this setting: compared with untreated OVX controls.

Consider `O=C(c1ccc(OCCN2CCCCC2)cc1)c1c(-c2ccc(O)cc2)sc2cc(O)ccc12` [Ralolxifene], for which, in the assay on uterine gene expression (uterus, OVX monkeys), the “Fold change relative to SHAM control: Cadherin 11, type 2, OB-cadherin (osteoblast)” value amounted to 0.8 fold; the “Fold change relative to SHAM control: Calcium channel, voltage-dependent, beta 2 subunit” value came out at 1.5 fold; the “Fold change relative to SHAM control: Catenin (cadherin-associated protein), alpha-like 1” value was found to be 1.5 fold; the “Fold change relative to SHAM control: Dishevelled associated activator of morphogenesis 1” value was determined as 0.6 fold. Moreover, in the assay with uterine gene expression (uterus, OVX monkeys), the “Fold change relative to SHAM control: Four and a half LIM domains 2” value came out at 0.6 fold; the “Fold change relative to SHAM control: Integrin, beta 5” value amounted to 0.9 fold; the “Fold change relative to SHAM control: LDL receptor adaptor protein” value was determined as 1.4 fold; the “Fold change relative to SHAM control: LIM and senescent cell antigen-like domains 1” value worked out at 0.8 fold. For the same compound, in the assay on uterine gene expression (uterus, OVX monkeys), the “Fold change relative to SHAM control: Mitogen-activated protein kinase kinase kinase kinase 4” value came out at 1.2 fold; the “Fold change relative to SHAM control: Phosphatase and tensin homolog (mutated in multiple advanced cancers 1)” value was 0.7 fold; the “Fold change relative to SHAM control: Phospholipid transfer protein” value was 0.7 fold; the “Fold change relative to SHAM control: Progesterone receptor” value is recorded as 0.6 fold. Besides, in the assay with uterine gene expression (uterus, OVX monkeys), the “Fold change relative to SHAM control: Protein tyrosine kinase 9” value is 0.8 fold; the “Fold change relative to SHAM control: Secreted frizzled-related protein 1” value was found to be 0.8 fold; the “Fold change relative to SHAM control: Secreted frizzled-related protein 4” value amounted to 0.4 fold; the “Fold change relative to SHAM control: Wingless-type MMTV integration site family, member 2B” value is on record as 0.8 fold. For the same compound, the “Fold change relative to SHAM control: Wingless-type MMTV integration site family, member 16” value with uterine gene expression (uterus, OVX monkeys) worked out at 0.8 fold. In the assay on uterine gene expression (uterus, OVX monkeys, Table 46), the “Fold change relative to SHAM control: Insulin receptor” value is given as 1.4 fold.
Turning to `C[C@]12CC[C@@H]3c4ccc(O)cc4CC[C@H]3[C@@H]1CC[C@@H]2O` [estradiol], in assay [1], the “Decrease of FSH transcripts in the pituitary gland” value turned out to be 73.4 fold and the “Decrease of LH transcripts in the pituitary gland” value amounted to 16.4 fold. In the assay with uterine gene expression, the “Uterine expression increase: transport genes” value is reported as 2-7 fold. Moreover, in the assay on uterine gene expression (compared with OVX control), the “Uterine expression downregulation: thioredoxin interacting protein” value was found to be 3 fold. Further, in the assay on uterine gene expression (compared with OVX controls), the “Uterine expression increase: Collagen type 1 alpha 2” value is recorded as 13.2 fold, the “Uterine expression increase: cell cycle proteins (CDC28 protein kinase regulatory subunit 2)” value was “up to 4 fold”, the “Uterine expression increase: collagen type 1 alpha1” value amounted to 6.6 fold and the “Uterine expression increase: collagen type III alpha 1” value was 6.8 fold. In the assay on uterine gene expression (compared with OVX controls), the “Uterine expression increase: collagen type IV alpha 1” value is 4.3 fold, the “Uterine expression increase: cysteine-rich angiogenic inducer 61” value amounted to 3.5 fold, the “Uterine expression increase: insulin-like GF binding protein 2 (36 kDa)” value was found to be 7.1 fold and the “Uterine expression increase: insulin-like growth factor binding protein 5” value stood at 5.2 fold. In addition, in the assay on uterine gene expression (compared with OVX controls), the “Uterine expression increase: latent transforming growth factor beta binding protein 1” value stood at 3.6 fold. In the assay on uterine gene expression (setting [3]), the “Uterine expression increase: Dishevelled associated activator of morphogenesis 1” value was 3.1 fold, the “Uterine expression increase: integrin (beta 5)” value is reported as 1.7 fold, the “Uterine expression increase: progesterone receptor” value is 9.8 fold and the “Uterine expression increase: secreted frizzled-related protein 1” value stood at 7.1 fold. For the same compound, in the assay with uterine gene expression (setting [3]), the “Uterine expression increase: secreted frizzled-related protein 4” value amounted to 4.2 fold and the “Uterine expression increase: wingless-type MMTV integration site (family, member 2B; wnt2B)” value turned out to be 2.6 fold.
As to Peptide 3: leukemia inhibitory factor, in assay [2], the “Conclusions of the in vivo Profiling by the Data Mining Team: Function/Pathway” value is given as “Ca^++ bone metabolism; also recorded: Inflammation; also recorded: Immunosuppression; also recorded: Vascular differentiation”; the “Findings by the Data Mining Team: Skeletal muscle (gene with direction)” value is “JunB and haptoglobin and phospholipase A2 typeIIA+”.
